From publication PMC9583322, “Vicinal Diaryl-Substituted Isoxazole and Pyrazole Derivatives with In Vitro Growth Inhibitory and In Vivo Antitumor Activity” (ACS Omega, 2022)

Experiments:
[1] = tested on: Huh7; test: SRB cytotoxicity assay; type: cell-based, human; conditions: Homo sapiens, Huh-7, 72 h, 72 h treatment
Experimental: (§1) HepG2, FOCUS, Hep3B, Mahlavu, Huh7, Hep40, and PLC-PRF-5 hepatocellular carcinoma cells; MCF-7, MDA-MB-231, MDA-MB-468, SKBR3, and ZR-75 breast cancer cells; and normal-like epithelial MCF-10A breast cells were cultured in low-glucose Dulbecco’s modified Eagle’s medium (DMEM) (Biological Industries-BI) supplemented with 10% fetal bovine serum (FBS) (Gibco/Thermo Fisher Scientific), 2 mM L-Glutamine (Gibco/Thermo Fisher Scientific), 100 Units/mL Penicillin/Streptomycin, and 0.1 mM non-essential amino acid (Gibco/Thermo Fisher Scientific). SNU475 hepatocellular carcinoma cells were maintained in RPMI (Biological Industries-BI) supplemented with 10% fetal bovine serum (FBS) (Gibco/Thermo Fisher Scientific), L-Glutamine (Gibco/Thermo Fisher Scientific), and 100 Units/mL Penicillin/Streptomycin, while ZR-75 breast cancer cells were cultured RPMI (Biological Industries-BI) supplemented with 10% fetal bovine serum (FBS) (Gibco/Thermo Fisher Scientific), 1× sodium pyruvate, and %4.5 glucose. Normal-like MCF-10A breast cells were sustained in DMEM/HAM’S F12 (Hyclone) supplemented with 10% fetal bovine serum (FBS) (Gibco/Thermo Fisher Scientific), EGF (20 ng/mL), Hydrocortisone ([…]), cholera toxin (100 ng/mL), insulin (10 μg/mL), and 100 Units/mL Penicillin/Streptomycin. The cells were cultivated at 37 °C in a humidified incubator under 5% CO2.
(§2) Mahlavu, FOCUS, SNU475 (1000 cell/well in 150 μL/well); Huh7, MCF7 (2500 cell/well in 150 μL/well); HepG2, Hep3B, SKBR3 (3000 cell/well in 150 μL/well); PLC-PRF-5, Hep40 (5000 cell/well in 150 μL/well); MDA-MB-231, MDA-MB-468, MCF10A (6000 cell/well in 150 μL/well); and ZR-75 (7500 cell/well in 150 μL/well) were cultured in 96-well plates and were inoculated in an incubator for 24 hours. The compounds were dissolved in dimethyl sulfoxide (DMSO) (Sigma, St Louis, MO) as a 20 mM stock solution. The treatment of cells with the compounds was done in a concentration range starting from 40 to 2.5 μM. The compounds which were below 2.5 μM were tested in a concentration range from 2.5 to 0.15 μM. End of the 72h compound treatment, the cells were fixed using 10% (v/v) trichloroacetic acid (MERCK) for an hour and washed with ddH2O, and left for air-drying. The fixed plates were stained with 50 μL of sulforhodamine B (SRB) solution (Sigma) at RT for 10 min. To remove unbound SRB dye, acetic acid was used to wash cells three times and left for drying. The protein-bound SRB was solubilized with 10 mM Tris-base (Sigma) and their absorbance was measured with a 96-well plate reader at 515 nm wavelength (ELx800, Biotek). The IC50 values of compounds were calculated in comparison with control group DMSO. Data with R^2 values larger than 0.9 are considered significant.

[2] = tested on: MCF7; test: SRB cytotoxicity assay; type: cell-based, human; conditions: 72 h treatment
Experimental: as §1, §2

[3] = tested on: Mahlavu; test: SRB cytotoxicity assay; type: cell-based, human; conditions: 72 h treatment
Experimental: as §1, §2

Structure (SMILES)	IC50 [1] [µM]	IC50 ([2]; Homo sapiens, MCF7, 72 h) [µM]	melting point [°C]	IC50 [2] [µM]	IC50 ([3]; Homo sapiens, Mahlavu, 72 h) [µM]	IC50 [3] [µM]
Cc1noc(C)c1COc1ccc(-c2noc(C)c2-c2ccc(Cl)cc2)cc1 [compound 39, 4-(4-Chlorophenyl)-3-(4-((3,5-dimethylisoxazol-4-yl)methoxy)phenyl)-5-methylisoxazole]	3.7	> 20	138.9 to 141.3			
Cc1cc(COc2ccc(-c3noc(C)c3-c3ccc(Cl)cc3)cc2)n(C)n1 [compound 40, 4-(4-Chlorophenyl)-3-(4-((1,3-dimethyl-1H-pyrazol-5-yl)methoxy)phenyl)-5-methylisoxazole]	0.9	12.2	156.4 to 157.9			
Cc1onc(-c2ccc(OCc3cncn3C(C)C)cc2)c1-c1ccc(Cl)cc1 [compound 41, 4-(4-Chlorophenyl)-3-(4-((1-isopropyl-1H-imidazol-5-yl)methoxy)phenyl)-5-methylisoxazole]	2.5	16.7	168.4 to 170.7			
Cc1onc(-c2ccc(OCc3ccc(C(F)(F)F)o3)cc2)c1-c1ccc(Cl)cc1 [compound 42, 4-(4-Chlorophenyl)-5-methyl-3-(4-((5-(trifluoromethyl)furan-2-yl)methoxy)phenyl) isoxazole]	13.4	14	105.7 to 106.8			
Cc1ccccc1COc1ccc(-c2noc(C)c2-c2ccccc2Cl)cc1 [compound 44, 5-Methyl-4-(2-chlorophenyl)-3-(4-((2-methylbenzyl)oxy)phenyl)isoxazole]	> 20	9.9	103.8 to 104.4			
Cc1ccccc1COc1ccc(-c2noc(C)c2-c2ccc(F)cc2)cc1 [compound 45, 5-Methyl-4-(4-fluorophenyl)-3-(4-((2-methylbenzyl)oxy)phenyl)isoxazole]	16.7	> 20	119 to 120.5			
COc1ccc(-c2c(-c3ccc(OCc4ccccc4C)cc3)noc2C)cc1 [compound 46, 5-Methyl-4-(4-methoxyphenyl)-3-(4-((2-methylbenzyl)oxy)phenyl)isoxazole]	8.9	12.8	121.3 to 122.7			
Cc1ccc(-c2c(-c3ccc(OCc4ccccc4C)cc3)noc2C)cc1 [compound 47, 5-Methyl-4-(4-methylphenyl)-3-(4-((2-methylbenzyl)oxy)phenyl)isoxazole]	1.8	4.7	130.8 to 131.8			
Cc1ccccc1COc1ccc(-c2noc(C)c2-c2ccc(C#N)cc2)cc1 [compound 48, 5-Methyl-4-(4-cyanophenyl)-3-(4-((2-methylbenzyl)oxy)phenyl)isoxazole]	6.7	≥ 20	135.3 to 137.1	> 20		
Cc1ccccc1COc1ccc(-c2noc(C)c2-c2cccc(C(F)(F)F)c2)cc1 [compound 49, 5-Methyl-4-(3-trifluoromethylphenyl)-3-(4-((2-methylbenzyl)oxy)phenyl)isoxazole]	19	> 20	120.7 to 122.4			
Cc1ccccc1COc1ccc(-c2noc(C)c2-c2ccc(N)cc2)cc1 [compound 51, 5-Methyl-4-(4-aminophenyl)-3-(4-((2-methylbenzyl)oxy)phenyl)isoxazole]	16.9	19.7	119.4 to 121.1			
Cc1ccccc1COc1ccc(-c2noc(C)c2-c2ccc(Cl)cc2Cl)cc1 [compound 53, 5-Methyl-4-(2,4-dichlorophenyl)-3-(4-((2-methylbenzyl)oxy)phenyl)isoxazole]	8.2	19.2	98 to 98.4			
Cc1ccc(-c2c(-c3ccc(OCc4ccccc4C)cc3)noc2C)nc1 [compound 54, 5-Methyl-3-(4-((2-methylbenzyl)oxy)phenyl)-4-(5-methylpyridin-2-yl)isoxazole]	6.4	> 20	121.4 to 122.3			
Cc1ccccc1COc1ccc(-c2noc(C)c2-c2ccncc2)cc1 [compound 55, 5-Methyl-3-(4-((2-methylbenzyl)oxy)phenyl)-4-(pyridin-4-yl)isoxazole]	> 20	> 20	128.5 to 129.3			
Cc1ccccc1COc1ccc(-c2noc(C)c2-c2ccc(Cl)cc2)c(F)c1 [compound 56, 4-(4-Chlorophenyl)-3-(2-fluoro-4-((2-methylbenzyl)oxy)phenyl)-5-methylisoxazole]	2.25	9.53	96.1 to 98.3			
Cc1ccccc1COc1ccc(-c2noc(C)c2-c2ccc(Cl)cc2)cc1F [compound 57, 4-(4-Chlorophenyl)-3-(3-fluoro-4-((2-methylbenzyl)oxy)phenyl)-5-methylisoxazole]	9.8	> 20	108 to 110.2			
Cc1ccccc1CNc1ccc(-c2noc(C)c2-c2ccc(Cl)cc2)cc1 [compound 59, 4-(4-(4-Chlorophenyl)-5-methylisoxazol-3-yl)-N-(2-methylbenzyl)aniline]	4	≥ 20	134.9 to 137	> 20		
Cc1ccccc1COc1ccc(-c2onc(C)c2-c2ccc(Cl)cc2)cc1 [compound 60, 4-(4-Chlorophenyl)-3-methyl-5-(4-((2-methylbenzyl)oxy)phenyl)isoxazole]	3.8	~19	153.8 to 154.9	19.6	9.4	
Cc1ccccc1COc1ccc(-c2oncc2-c2ccc(Cl)cc2)cc1 [compound 63, 4-(4-Chlorophenyl)-5-(4-((2-methylbenzyl)oxy)phenyl)isoxazole]	1.5	≥ 20	115.3 to 117.3	> 20	≥ 20	20.1
Cc1nc(-c2ccc(OCc3ccccc3C)cc2)c(-c2ccc(Cl)cc2)s1 [compound 75, 5-(4-Chlorophenyl)-2-methyl-4-(4-((2-methylbenzyl)oxy)phenyl)thiazole]	> 20	> 20	90.5 to 92.1		> 20	
Cc1ccccc1COc1ccc(-n2nccc2-c2ccc(Cl)cc2)cc1 [compound 78, 5-(4-Chlorophenyl)-1-(4-((2-methylbenyl)oxy)phenyl)-1H-pyrazole]	> 20	> 20	145.2 to 146.4		> 20	
Cc1ccccc1COc1ccc(-c2ccnn2-c2ccc(Cl)cc2)nc1 [compound 86, 2-(1-(4-Chlorophenyl)-1H-pyrazol-5-yl)-5-((2-methylbenzyl)oxy)pyridine]	2	≥ 20	108.4 to 110.4	21.7	7.1	
Cc1ccccc1COc1ccc(-c2ccnn2-c2ccc(Cl)cc2)cn1 [compound 87, 5-(1-(4-Chlorophenyl)-1H-pyrazol-5-yl)-2-((2-methylbenzyl)oxy)pyridine]	> 20	> 20	126.5 to 127.8		> 20	
Cc1ccccc1COc1ccc(-c2ccnn2-c2ccc(Cl)cc2)cc1F [compound 89, 1-(4-Chlorophenyl)-5-(3-fluoro-4-((2-methylbenzyl)oxy)phenyl)-1H-pyrazole]	> 20	> 20	95 to 95.4		> 20	
Cc1ccccc1C(=O)Nc1ccc(-c2ccnn2-c2ccc(Cl)cc2)cc1 [compound 91, N-(4-(1-(4-Chlorophenyl)-1H-pyrazol-5-yl)phenyl)-2-methylbenzamide]	> 20	> 20	179.1 to 180		> 20	
